Consider 30 molecules from patent US11932645B2, “Substituted pyrazolo[1,5-a]pyrimidines and their use in the treatment of medical disorders” (Bial—R&D Investments, S.A., priority 2014, dated 2024).

For the test, the target named is T1, glucocerebrosidase (Gcase) (Homo sapiens, UniProt P04062).
T1 sequence (P04062 40-536): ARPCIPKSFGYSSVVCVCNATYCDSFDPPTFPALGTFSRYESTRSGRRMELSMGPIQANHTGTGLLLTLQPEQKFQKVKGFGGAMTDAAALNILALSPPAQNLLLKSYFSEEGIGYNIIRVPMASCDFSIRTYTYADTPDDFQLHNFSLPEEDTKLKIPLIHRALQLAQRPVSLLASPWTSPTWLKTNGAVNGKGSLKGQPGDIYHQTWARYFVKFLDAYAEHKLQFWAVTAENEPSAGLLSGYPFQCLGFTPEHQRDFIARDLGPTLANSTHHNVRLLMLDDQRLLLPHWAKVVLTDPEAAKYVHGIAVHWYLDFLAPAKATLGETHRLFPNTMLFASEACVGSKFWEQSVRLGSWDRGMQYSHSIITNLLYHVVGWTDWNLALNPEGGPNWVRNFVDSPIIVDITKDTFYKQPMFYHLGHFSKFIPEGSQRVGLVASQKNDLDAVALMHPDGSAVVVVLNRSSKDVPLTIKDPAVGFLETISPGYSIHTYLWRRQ
The test can be described thus: Glucocerebrosidase (Gcase) activation assay, 4-methylumbelliferyl-beta-D-glucopyranoside substrate, with saposin C. The test is classed as biochemical. The settings on record: 10 nM GCase, 100 nM saposin C, pH 4.7. The procedure:
The ability of exemplary compounds to activate glucocerebrosidase (Gcase) was measured.
A 484 μL aliquot of a 1.0 mg/mL solution of phosphatidylserine (PS) (Sigma P7769) in chloroform was evaporated under a stream of nitrogen for 1 hour. The lipid film was dissolved over 4 minutes of vigorous vortexing in 40 mL of 176 mM K2HPO4/50 mM citric acid (pH 4.7) containing 7.5 μL of triton X-100, resulting in a mixed micellar preparation with a composition of 0.32 mM triton and 0.37 mol % PS. 4-Methylumbelliferyl-beta-D-glucopyranoside (ACROS-337025000) was dissolved in the micellar solution to a final concentration of 2 mM for use as the reaction substrate.
Test compounds were diluted to the desired concentrations with dimethylsulfoxide (DMSO) from 10 mM stocks, and 0.41 μL of the DMSO compound mixture was added to 100 μL of micellar solution containing 10 nM GCase and 100 nM saposin C (Enzo ALX-201-262-C050). Pre-incubation was allowed to occur for 30 minutes at room temperature, after which the reaction was initiated by combining 25 μL of substrate solution with 25 μL of compound/GCase/saposin mixture. The reaction proceeded for 15 minutes at room temperature and was stopped by adding 150 μL of 1M glycine, pH 12.5. The endpoint of the reaction was monitored by measuring fluorescence intensity (excitation: 365 nm; emission: 440 nm) on a SpectraMax i3 instrument (Molecular Devices). Test compounds were screened at 1.0 and 0.1 μM final concentration, and subsequent 8-point dose response curves were obtained using 3-fold dilutions from a maximum final concentration of 5 μM.
For experiments in which the test compound was used at a concentration of 1.0 μM, the symbol “+” indicates less than 30% Gcase activation; the symbol “++” indicates Gcase activation in the range of 30% up to 60%; and the symbol “+++” indicates Gcase activation greater than 60%. For experiments in which the test compound was used at a concentration of 0.1 μM, the symbol “*” indicates less than 10% Gcase activation; the symbol “**” indicates Gcase activation in the range of 10% up to 20%; and the symbol “***” indicates greater than 20% Gcase activation.

As for `COc1ccccc1[C@@H](C)NC(=O)c1cnn2c(C)cc(C)nc12` [III-62], the “Percent Gcase Activation 0.1 μM Test Compound” value was “* (less than 10% Gcase activation)” and the “Percent Gcase Activation 1 μM Test Compound” value is given as “+++ (Gcase activation greater than 60%)”.
The corresponding values for `Cc1cc(C)n2ncc(C(=O)Nc3ccc(-c4ccccc4)cc3)c2n1` [III-3] are “*** (greater than 20% Gcase activation)” and “++ (Gcase activation in the range of 30% up to 60%)”.
The corresponding values for `C#Cc1ccc(NC(=O)c2cnn3c(C)cc(C)nc23)cc1` [IV-1] are “** (Gcase activation in the range of 10% up to 20%)” and “++ (Gcase activation in the range of 30% up to 60%)”.
The corresponding values for `Cc1cc(C)n2ncc(C(=O)Nc3ccc4c(c3)C(C3=NCCN3)CCC4)c2n1` (centres unmarked) [III-73] are “* (less than 10% Gcase activation)” and “+ (less than 30% Gcase activation)”.
As to `Cc1cc(C)n2ncc(C(=O)Nc3ccc4oncc4c3)c2n1` [III-47], the “Percent Gcase Activation 0.1 μM Test Compound” value is “* (less than 10% Gcase activation)” and the “Percent Gcase Activation 1 μM Test Compound” value was “+ (less than 30% Gcase activation)”.
The corresponding values for `Cc1cc(C)n2ncc(C(=O)NC(C)(C)c3ccc(F)cc3F)c2n1` [III-70] are “** (Gcase activation in the range of 10% up to 20%)” and “+++ (Gcase activation greater than 60%)”.
With `Cc1cc(C)n2ncc(C(=O)Nc3ccc(-n4ccnc4)cc3)c2n1` [III-6], the “Percent Gcase Activation 0.1 μM Test Compound” value is “* (less than 10% Gcase activation)” and the “Percent Gcase Activation 1 μM Test Compound” value is reported as “+ (less than 30% Gcase activation)”.
As for `C#Cc1ccc(NC(=O)c2cnn3c(C)cc(C)nc23)cn1` [III-2], the “Percent Gcase Activation 0.1 μM Test Compound” value is recorded as “* (less than 10% Gcase activation)” and the “Percent Gcase Activation 1 μM Test Compound” value is “+ (less than 30% Gcase activation)”.
The corresponding values for `Cc1cc(C)n2ncc(C(=O)Nc3ccc(-c4ccco4)nc3)c2n1` [III-22] are “* (less than 10% Gcase activation)” and “++ (Gcase activation in the range of 30% up to 60%)”.
Take `C#Cc1ccc(NCc2cnn3c(C)cc(C)cc23)cc1` [III-74]: the “Percent Gcase Activation 0.1 μM Test Compound” value is recorded as “* (less than 10% Gcase activation)” and the “Percent Gcase Activation 1 μM Test Compound” value is on record as “+ (less than 30% Gcase activation)”.
The corresponding values for `Cc1cc(C)n2ncc(C(=O)Nc3ccc(-c4cnn(C)c4)nc3)c2n1` [III-23] are “* (less than 10% Gcase activation)” and “+ (less than 30% Gcase activation)”.
With `Cc1cc(C)n2ncc(C(=O)Nc3ccc(C)c(-c4ncco4)c3)c2n1` [III-52], the “Percent Gcase Activation 0.1 μM Test Compound” value was “** (Gcase activation in the range of 10% up to 20%)” and the “Percent Gcase Activation 1 μM Test Compound” value is given as “+++ (Gcase activation greater than 60%)”.
Consider `Cc1cc(C)n2ncc(CNc3ccc(-c4cocn4)nc3)c2n1` [III-24], for which the “Percent Gcase Activation 0.1 μM Test Compound” value is “* (less than 10% Gcase activation)” and the “Percent Gcase Activation 1 μM Test Compound” value is on record as “+ (less than 30% Gcase activation)”.
For `Cc1cc(Cl)n2ncc(C(=O)NC(C)(C)c3ccc(Cl)cc3)c2n1` [III-68], in that order: “** (Gcase activation in the range of 10% up to 20%)” and “+++ (Gcase activation greater than 60%)”.
Take `Cc1cc(C)n2ncc(C(=O)NC3CCc4ccccc43)c2n1` (centres unmarked) [III-79]: the “Percent Gcase Activation 0.1 μM Test Compound” value is on record as “** (Gcase activation in the range of 10% up to 20%)”.
Regarding `Cc1cc(C)n2ncc(C(=O)Nc3ccc(-c4ccncc4)cc3)c2n1` [III-56], the “Percent Gcase Activation 0.1 μM Test Compound” value was “* (less than 10% Gcase activation)” and the “Percent Gcase Activation 1 μM Test Compound” value was “+ (less than 30% Gcase activation)”.
Take `Cc1cc(C)n2ncc(C(=O)Nc3ccc4[nH]ncc4c3)c2n1` [III-41]: the “Percent Gcase Activation 0.1 μM Test Compound” value was “* (less than 10% Gcase activation)” and the “Percent Gcase Activation 1 μM Test Compound” value is “+ (less than 30% Gcase activation)”.
On to `Cc1cc(C)n2ncc(C(=O)Nc3ccc(Oc4ccccc4)cc3)c2n1` [III-5], for which the “Percent Gcase Activation 0.1 μM Test Compound” value was “*** (greater than 20% Gcase activation)” and the “Percent Gcase Activation 1 μM Test Compound” value is “++ (Gcase activation in the range of 30% up to 60%)”.
The corresponding values for `Cc1cc(C)n2ncc(C(=O)Nc3nc4ccccc4[nH]3)c2n1` [III-28] are “* (less than 10% Gcase activation)” and “+ (less than 30% Gcase activation)”.
The corresponding values for `Cc1cc(C)n2ncc(C(=O)Nc3ccc4nc(C)oc4c3)c2n1` [III-44] are “* (less than 10% Gcase activation)” and “+ (less than 30% Gcase activation)”.
For `CO[C@H]1CC[C@H](C(C)(C)NC(=O)c2cnn3c(C)cc(C)nc23)CC1` [III-71], in that order: “* (less than 10% Gcase activation)” and “++ (Gcase activation in the range of 30% up to 60%)”.
With `Cc1cc(C)n2ncc(C(=O)Nc3ccc(-c4cc[nH]n4)cc3)c2n1` [III-31], the “Percent Gcase Activation 0.1 μM Test Compound” value is “* (less than 10% Gcase activation)” and the “Percent Gcase Activation 1 μM Test Compound” value was “+ (less than 30% Gcase activation)”.
`Cc1cc(C)n2ncc(C(=O)Nc3ccc(Cl)c(C(C)Oc4cccnc4)c3)c2n1` (centres unmarked) [III-75]: the “Percent Gcase Activation 0.1 μM Test Compound” value is reported as “* (less than 10% Gcase activation)” and the “Percent Gcase Activation 1 μM Test Compound” value is listed as “+++ (Gcase activation greater than 60%)”.
For `Cc1cc(C)n2ncc(C(=O)Nc3ccc(-c4cnoc4)cc3)c2n1` [III-17], in that order: “* (less than 10% Gcase activation)” and “+ (less than 30% Gcase activation)”.
Take `C#C[C@H]1CC[C@@H](NC(=O)c2cnn3c(C)cc(C)nc23)CC1` [III-15]: the “Percent Gcase Activation 0.1 μM Test Compound” value is listed as “* (less than 10% Gcase activation)” and the “Percent Gcase Activation 1 μM Test Compound” value is “+ (less than 30% Gcase activation)”.
On to `Cc1cc(C)n2ncc(C(=O)Nc3ccc4[nH]c(C)cc4c3)c2n1` [III-40], for which the “Percent Gcase Activation 0.1 μM Test Compound” value is recorded as “* (less than 10% Gcase activation)” and the “Percent Gcase Activation 1 μM Test Compound” value was “+ (less than 30% Gcase activation)”.
For `Cc1cc(C)n2ncc(C(=O)Nc3ccc(-c4ccncc4)nc3)c2n1` [III-21], in that order: “* (less than 10% Gcase activation)” and “+ (less than 30% Gcase activation)”.
In the case of `Cc1cc(C)n2ncc(C(=O)Nc3ccc(C#CCN(C)C)cc3)c2n1` [IV-2], the “Percent Gcase Activation 0.1 μM Test Compound” value is given as “* (less than 10% Gcase activation)” and the “Percent Gcase Activation 1 μM Test Compound” value is recorded as “+ (less than 30% Gcase activation)”.
As for `Cc1cc(C)n2ncc(C(=O)Nc3ccc4nc(C)[nH]c4c3)c2n1` [III-45], the “Percent Gcase Activation 0.1 μM Test Compound” value is “* (less than 10% Gcase activation)” and the “Percent Gcase Activation 1 μM Test Compound” value is reported as “+ (less than 30% Gcase activation)”.
The corresponding values for `Cc1cc(C)n2ncc(C(=O)Nc3ccc(-c4cccs4)cc3)c2n1` [III-39] are “*** (greater than 20% Gcase activation)” and “+++ (Gcase activation greater than 60%)”.
